Data as given in patent US20250129083A1, “IMIDAZOTETRAZINE COMPOUNDS AND TREATMENT OF TMZ-RESISTANT CANCERS” (THE BOARD OF TRUSTEES OF THE UNIVERSITY OF ILLINOIS, priority 2022, published 2025).
Like-named read-outs stand apart in the source and are kept apart here.

Legend:
[1] = system: linearized pBR322 plasmid DNA; conditions: purified linearized DNA, 15 hours at 37° C.
T98G GBM cell line = test: Cell viability assay (Alamar Blue, 7 days), T98G; type: cell-based, human
Procedure: (§1) Cell Culture and Reagents. All cell lines were grown in a 37° C., 5% CO2, humidified environment, in media containing 1% penicillin/streptomycin. Stable cell line generation of GL261 MGMT+ was purchased from Creative Biogene. Cell culture conditions are as follows: cell lines U87, T98G, and RKO were grown in EMEM with 10% FBS. D54, GL261, GL261 MGMT+, and U118MG cell lines were grown in DMEM with 10% FBS. HCT116 cells were grown in RMPI with 10% FBS. D341 Med cells were grown in EMEM with 20% FBS. Temozolomide (TMZ) was purchased from AK Scientific. TMZ analogues were synthesized as described below. Compounds were dissolved in DMSO (1% final concentration, Fisher Chemical) for cell culture studies.
(§2) Cell Viability Assays. Cells were harvested, seeded in a 96-well plate and allowed to adhere. After three hours, compound was added to each well in DMSO (1% final concentration). Cells were incubated for seven days (unless otherwise noted) before viability was assessed by the Alamar Blue assay. Raptinal (20 μM) was used as a dead control.

U87 GBM cell line = test: Cell viability assay (Alamar Blue, 7 days), U87; type: cell-based, human
Procedure: as §1, §2
Plated 1500 c/w for GL261; 600 c/w for U87; 600 c/w for U118MG; 1500 c/w for GL261 MGMT+ Incubated ovn and added 1 μL of compound in DMSO the next day. Incubated over 7 days; added Alamar Blue to assess cell viability and used 10 μM Raptinal as dead control. Error is SEM, n=3.

[2] = Hydrolytic stability studies; type: physicochemical; conditions: PBS; for half-life at 100 μM: 37° C.; for Hydrolytic stability: percentage of prodrug remaining after 2 hours: pH 7.4, 37° C., HPLC
Procedure: Hydrolytic Stability Studies. Compound (100 μM) was incubated at 37° C. in PBS at pH 7.4 (unless otherwise noted). At the indicated time point, an aliquot was collected and analyzed by HPLC. Compound peaks were integrated and compared to the integration at to calculate the percentage of prodrug remaining.

[3] = system: expanded panel of GBM cell lines with or without MGMT expression; test: Cell viability in expanded panel of GBM cell lines; type: cell-based; conditions: 168 h; all cell lines, with or without MGMT; 7 days; read-out: IC50 values across expanded panel of GBM cell lines
Procedure: FIG. 1A-C. Selection and evaluation of MGMT-independent imidazotetrazines. (A) IC50 values (M, 7 days) of TMZ and compound 10 in an expanded panel of GBM cell lines. Cell viability was assessed via the Alamar Blue assay, n≥3, error is SEM. (B) Hydrolytic stability of TMZ at pH 7, 7.4, and 8. Percentage of prodrug remaining was quantified by HPLC, n≥2. (C) Hydrolytic stability of compound 10 at pH 7, 7.4, and 8. Percentage of prodrug remaining was quantified by HPLC, n≥2.
FIG. 2A-F. (A) 7 day IC50 values (M) of compound 10 and CPZ in an expanded panel of GBM cell lines. Cell viability was assessed via the Alamar Blue assay, n≥3, error is SEM. (B-E) 7 day dose-response curves of TMZ and CPZ in cell lines with variable MGMT and MMR status. Error is SEM, n≥3. (F) Killing kinetics of CPZ compared to TMZ in the U87 cell line. Cells were treated with compound once and viability was assessed every 24 hours via Alamar Blue assay. Error is SEM, n≥2.
as §2

in vivo = conditions: CD-1 IGS, mouse, brain and serum, iv, 25 mg/kg
[4] = Hepatic metabolism: stability in mouse liver microsomes; type: in vitro ADME; conditions: for Stability (2 h, with MLM): percentage remaining relative to t0, mouse liver microsomes, SEM, n ≥ 2; for Stability (2 h, no MLM): percentage remaining, microsomes replaced with PBS
[5] = Homo sapiens, T98G, 168 h, MGMT (+), Alamar Blue, error SEM, n ≥ 3, read-out: Seven-day IC50, T98G
[6] = Homo sapiens, 168 h, MGMT (−), Alamar Blue, error SEM, n ≥ 3, read-out: Seven-day IC50, U87
[7] = MGMT (+), Alamar Blue, error SEM, n ≥ 3, read-out: Seven-day IC50, T98G
[8] = Homo sapiens, T98G, 168 h, MGMT (+) MMR (+), read-out: Activity, T98G
[9] = Homo sapiens, 168 h, MGMT (−) MMR (+), 600 c/w, SEM, n=3, read-out: Activity, U87

IC50 (U87 GBM cell line; [6]) | Compound | IC50 (T98G GBM cell line; [5]) | other results
470 µM | CCn1nnc2c(C(N)=O)ncn2c1=O [Compound 2, 3-ethyl-4-oxo-3,4-dihydroimidazo[5,1-d][1,2,3,5]tetrazine-8-carboxamide] | > 1000 µM | 
> 1000 µM | NC(=O)c1ncn2c(=O)[nH]nnc12 [Compound 1, 4-oxo-3,4-dihydroimidazo[5,1-d][1,2,3,5]tetrazine-8-carboxamide] | > 1000 µM | 
> 1000 µM | CC(C)(C)Cn1nnc2c(C(N)=O)ncn2c1=O [Compound 6, 3-neopentyl-4-oxo-3,4-dihydroimidazo[5,1-d][1,2,3,5]tetrazine-8-carboxamide] | > 1000 µM | 
> 1000 µM | CC(C)n1nnc2c(C(N)=O)ncn2c1=O [Compound 4, 3-isopropyl-4-oxo-3,4-dihydroimidazo[5,1-d][1,2,3,5]tetrazine-8-carboxamide] | > 1000 µM | 
29 µM | C#CCn1nnc2c(C(N)=O)ncn2c1=O [Compound 10, 4-oxo-3-(prop-2-yn-1-yl)-3,4-dihydroimidazo[5,1-d][1,2,3,5]tetrazine-8-carboxamide] | 77 µM | half-life at 100 μM ([2]; pH 7, calculated from hydrolytic stability data, read-out: Half-life, pH 7): 97 ± 5 min; Hydrolytic stability: percentage of prodrug remaining after 2 hours [2]: 8%; half-life at 100 μM ([2]; pH 7.4, calculated from hydrolytic stability data, read-out: Half-life, pH 7.4): ~30 min; half-life at 100 μM ([2]; pH 8, calculated from hydrolytic stability data, read-out: Half-life, pH 8): 15 ± 1 min; IC50 [3]: < 100 µM; Kp at 15 min (in vivo): 0.06 ± 0.01
570 ± 30 µM | CC(C)(C)n1nnc2c(C(N)=O)ncn2c1=O [Compound 5, 3-(tert-butyl)-4-oxo-3,4-dihydroimidazo[5,1-d][1,2,3,5]tetrazine-8-carboxamide] | > 1000 µM | 
30 µM | NC(=O)c1ncn2c(=O)n(CCCl)nnc12 [MTZ, 3-(2-chloroethyl)-4-oxo-3,4-dihydroimidazo[5,1-d][1,2,3,5]tetrazine-8-carboxamide, reference compound] | 85 ± 9 µM | 

Continued, molecule first:

Compound | IC50 (U87 GBM cell line; [6]) | IC50 (T98G GBM cell line; [5]) | other results
C=CCn1nnc2c(C(N)=O)ncn2c1=O [Compound 9, 3-allyl-4-oxo-3,4-dihydroimidazo[5,1-d][1,2,3,5]tetrazine-8-carboxamide] | 220 ± 60 µM | 320 ± 10 µM | DNA alkylation (streaking on gel) [1]: No evidence of DNA alkylation
NC(=O)c1ncn2c(=O)n(COc3ccccc3)nnc12 [Compound 11, 4-oxo-3-(phenoxymethyl)-3,4-dihydroimidazo[5,1-d][1,2,3,5]tetrazine-8-carboxamide] | < 40 µM | < 40 µM | IC50 (T98G GBM cell line; [7]): 35 ± 1 µM; IC50 (U87 GBM cell line; MGMT (−), Alamar Blue, error SEM, n ≥ 3, read-out: Seven-day IC50, U87): 21 ± 3 µM
C=CC=O [acrolein, reference compound] |  |  | DNA alkylation (streaking on gel) [1]: no evidence of alkylation; DNA interstrand cross-linking [1]: interstrand cross-linking
CC#CCn1nnc2c(C(N)=O)ncn2c1=O [Compound 19, 3-(but-2-yn-1-yl)-4-oxo-3,4-dihydroimidazo[5,1-d][1,2,3,5]tetrazine-8-carboxamide] | 37 µM | 110 µM | DNA alkylation (streaking on gel) [1]: Trace DNA alkylation; DNA interstrand cross-linking [1]: definitively absent
CCCn1nnc2c(C(N)=O)ncn2c1=O [Compound 3, 4-oxo-3-propyl-3,4-dihydroimidazo[5,1-d][1,2,3,5]tetrazine-8-carboxamide] | > 1000 µM | > 1000 µM | DNA alkylation (streaking on gel) [1]: No evidence of DNA alkylation
C#CCn1nnc2c(C(=O)NC)ncn2c1=O [Compound 16, N-methyl-4-oxo-3-(prop-2-yn-1-yl)-3,4-dihydroimidazo[5,1-d][1,2,3,5]tetrazine-8-carboxamide] |  |  | Hydrolytic stability: percentage of prodrug remaining after 2 hours [2]: 18%; IC50 (T98G GBM cell line; [8]): 87 ± 7 µM; IC50 (U87 GBM cell line; [9]): 40 ± 20 µM
CC#CCn1nnc2c(C(N)=O)ncn2c1=O [But] |  |  | Stability (2 h, with MLM) [4]: 89 ± 3%; Stability (2 h, no MLM) [4]: 85 ± 1%
COc1ccc(-n2nnc3c(C(N)=O)ncn3c2=O)cc1 [Compound 7, 3-(4-methoxyphenyl)-4-oxo-3,4-dihydroimidazo[5,1-d][1,2,3,S]tetrazine-8-carboxamide] |  | < 100 µM | IC50 (T98G GBM cell line; [7]): 60 ± 10 µM
CN(C)C(=O)c1ncn2c(=O)n(C)nnc12 [N,N-DiMe-TMZ, reference compound] |  |  | Stability (2 h, with MLM) [4]: 81 ± 2%; Stability (2 h, no MLM) [4]: 92 ± 3%
C#CCn1nnc2c(C(=O)N(C)C)ncn2c1=O [Compound 17, N,N-dimethyl-4-oxo-3-(prop-2-yn-1-yl)-3,4-dihydroimidazo[5,1-d][1,2,3,5]tetrazine-8-carboxamide] |  |  | Hydrolytic stability: percentage of prodrug remaining after 2 hours [2]: 27%; IC50 (T98G GBM cell line; [8]): 40 ± 5 µM; IC50 (U87 GBM cell line; [9]): 20 ± 5 µM
NC(=O)c1ncn2c(=O)n(CNC(=O)c3ccccc3)nnc12 [Compound 12, 3-(benzamidomethyl)-4-oxo-3,4-dihydroimidazo[5,1-d][1,2,3,5]tetrazine-8-carboxamide] | 240 ± 20 µM | 580 ± 100 µM | 
